Assay [1] concerns the target recombinant human Mcl-1 (residues 171-327) / Bim interaction (Homo sapiens (Human), UniProt Q07820). Description: biochemical. Type of assay: binding. Conditions: read-out: Mcl-1 HTRF IC50.
Assay [2] deals with human multiple myeloma cell line, OPM-2. The assay is described as follows: Cell viability assay (OPM-2 10 FBS), CellTiter-Glo. Type of assay: cell-based. In short, it runs like this:
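3000 cells/well, RPMI 1640 + 10% FBS; serial compound dilutions, 16 h, 37 °C/5% CO2.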

The mark [3] stands for this setting: TR-FRET, Mcl-1(171-327) / biotin-Bim (51-76).
[4] abbreviates: read-out: OPM-2 10% FBS IC50 IP, OPM-2 cells, 10% FBS, 16 h, CellTiter-Glo.
Where [5] appears, read: 0.1 nM Mcl-1(171-327), 0.05 nM biotin-Bim (51-76).
Where [6] appears, read: Homo sapiens, OPM-2, 16 h, read-out: OPM-2 10% FBS IC50 IP, OPM-2 cells, 10% FBS, 16 h incubation.
Setting [7] is: Homo sapiens, OPM-2, 16 h, read-out: OPM-2 10% FBS IC50 IP, OPM-2 cells, 10% FBS, 16 h, CellTiter-Glo.

Where two headings read alike, the source gives them in different places.

recombinant human Mcl-1 (residues 171-327) / Bim interaction, sequence (Q07820 171-327): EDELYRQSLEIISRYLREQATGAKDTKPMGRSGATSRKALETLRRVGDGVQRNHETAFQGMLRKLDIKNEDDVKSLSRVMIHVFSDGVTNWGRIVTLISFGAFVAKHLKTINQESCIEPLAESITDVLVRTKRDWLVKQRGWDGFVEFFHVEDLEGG

As to `C[C@@H]1[C@@H](C)CCC[C@@](O)(CCN2CC(F)(F)C2)[C@@H]2CC[C@H]2CN2C[C@@]3(CCCc4cc(Cl)ccc43)COc3ccc(cc32)C(=O)NS1(=O)=O` [Example 100093, (1S,3′R,6′R,7′R,11′S,12′R)-6-chloro-7′-(2-(3,3-difluoro-1-azetidinyl)ethyl)-7′-hydroxy-11′,12′-dimethyl-3,4-dihydro-2H,15′H-spiro[naphthalene-1,22′-[20]oxa[13]thia[1,14]diazatetracyclo [14.7.2.0~3,6~.0~19,24~]pentacosa[16,18,24]trien]-15′-one 13′,13′-dioxide], the results for the IC50 in assay [1] (setting [3]) and in assay [2] (setting [4]) were 0.291 nM and 554 nM, respectively.
For `C[C@@H]1[C@@H](C)C/C=C/[C@@](O)(C#CCN(C)C)[C@@H]2CC[C@H]2CN2C[C@@]3(CCCc4cc(Cl)ccc43)COc3ccc(cc32)C(=O)NS1(=O)=O` [Example 100295, (1S,3′R,6′R,7′S,8′E,11′S,12′R)-6-chloro-7′-(3-(dimethylamino)-1-propyn-1-yl)-7′-hydroxy-11′,12′-dimethyl-3,4-dihydro-2H,15′H-spiro[naphthalene-1,22′-[20]oxa[13]thia[1,14]diazatetracyclo [14.7.2.0~3,6~.0~19,24~]pentacosa[8,16,18,24]tetraen]-15′-one 13′,13′-dioxide] the same measures were 0.279 nM and 302 nM.
As to `CCO[C@@]1(CN2CCC3(CC2)COC3)/C=C/C[C@H](C)[C@@H](C)S(=O)(=O)NC(=O)c2ccc3c(c2)N(C[C@@H]2CC[C@H]21)C[C@@]1(CCCc2cc(Cl)ccc21)CO3` [Example 109, (1S,3′R,6′R,7′S,8′E,11′S,12′R)-6-chloro-7′-ethoxy-11′,12′-dimethyl-7′-(2-oxa-7-azaspiro[3,5]non-7-ylmethyl)-3,4-dihydro-2H,15′H-spiro[naphthalene-1,22′-[20]oxa[13]thia[1,14]diazatetracyclo [14.7.2.0~3,6~.0~19,24~]pentacosa[8,16,18,24]tetraen]-15′-one 13′,13′-dioxide], the IC50 was determined as 1.04 nM in assay [1] (setting [5]) and 916 nM in assay [2] (setting [6]).
For `CO[C@@]1(CN2CCN(C(=O)N(C)C)CC2)/C=C/C[C@H](C)[C@@H](C)S(=O)(=O)NC(=O)c2ccc3c(c2)N(C[C@@H]2CC[C@H]21)C[C@@]1(CCCc2cc(Cl)ccc21)CO3` [Example 259, 4-(((1S,3′R,6′R,7′S,8′E,11′S, 12′R)-6-chloro-7′-methoxy-11′,12′-dimethyl-13′,13′-dioxido-15′-oxo-3,4-dihydro-2H-spiro[naphthalene-1,22′-[20]oxa[13]thia[1,14]diazatetracyclo [14.7.2.0~3,6~.0~19,24~]pentacosa[8,16,18,24]tetraen]-7′-yl)methyl)-N,N-dimethyl-1-piperazinecarboxamide] the same measures were 0.23 nM and 254 nM.
`C[C@@H]1[C@@H](C)CCC[C@@](O)(CCN2CCOCC2)[C@@H]2CC[C@H]2CN2C[C@@]3(CCCc4cc(Cl)ccc43)COc3ccc(cc32)C(=O)NS1(=O)=O` [Example 100095, (1S,3′R,6′R,7′R,11′S,12′R)-6-chloro-7′-hydroxy-11′,12′-dimethyl-7′-(2-(4-morpholinyl)ethyl)-3,4-dihydro-2H,15′H-spiro[naphthalene-1,22′-[20]oxa[13]thia[1,14]diazatetracyclo [14.7.2.0~3,6~.0~19,24~]pentacosa[16,18,24]trien]-15′-one 13′,13′-dioxide]: the IC50 in assay [1] (setting [3]) was 0.148 nM; in assay [2] (setting [4]) it was 113 nM.
As to `CO[C@@]1(C2SCCCS2)/C=C/C[C@H](C)[C@@H](C)S(=O)(=O)NC(=O)c2ccc3c(c2)N(C[C@@H]2CC[C@H]21)C[C@@]1(CCCc2cc(Cl)ccc21)CO3` [Example 100261, (1S,3′R,6′R,7′S,8′E,11′S,12′R)-6-chloro-7′-(1,3-dithian-2-yl)-7′-methoxy-11′,12′-dimethyl-3,4-dihydro-2H,15′H-spiro[naphthalene-1,22′-[20]oxa[13]thia[1,14]diazatetracyclo [14.7.2.0~3,6~.0~19,24~]pentacosa[8,16,18,24]tetraen]-15′-one 13′,13′-dioxide], the values for the IC50 in assay [1] (setting [3]) and in assay [2] (setting [7]) were 1.22 nM and 533 nM, respectively.
For `CO[C@@]1(CN2CCN3CC[C@H](F)C[C@@H]3C2)/C=C/C[C@H](C)[C@@H](C)S(=O)(=O)NC(=O)c2ccc3c(c2)N(C[C@@H]2CC[C@H]21)C[C@@]1(CCCc2cc(Cl)ccc21)CO3` [Example 274], the IC50 in assay [1] (setting [5]) worked out at 0.285 nM; in assay [2] (read-out: OPM-2 10% FBS IC50 IP, OPM-2 cells, 10% FBS, 16 h incubation), 232 nM.
As to `COC[C@H]1CN(C[C@]2(OC)/C=C/C[C@H](C)[C@@H](C)S(=O)(=O)NC(=O)c3ccc4c(c3)N(C[C@@H]3CC[C@H]32)C[C@@]2(CCCc3cc(Cl)ccc32)CO4)CCO1` [Example 199, (1S,3′R,6′R,7′S,8′E,11′S,12′R)-6-chloro-7′-methoxy-7′-(((2R)-2-(methoxymethyl)-4-morpholinyl)methyl)-11′,12′-dimethyl-3,4-dihydro-2H,15′H-spiro[naphthalene-1,22′-[20]oxa[13]thia[1,14]diazatetracyclo [14.7.2.0~3,6~.0~19,24~]pentacosa[8,16,18,24]tetraen]-15′-one 13′,13′-dioxide], the IC50 in assay [1] (setting [5]) turned out to be 0.119 nM; in assay [2] (setting [6]) it was 208 nM.
Consider `CO[C@@]1(CN2CCN(C3COC3)CC2)/C=C/[C@H](C)[C@H](C)CS(=O)(=O)NC(=O)c2ccc3c(c2)N(C[C@@H]2CC[C@H]21)C[C@@]1(CCCc2cc(Cl)ccc21)CO3` [Example 158, (1S,3′R,6′R,7′S,8′E,10′S,11′S)-6-chloro-7′-methoxy-10′,11′-dimethyl-7′-((4-(3-oxetanyl)-1-piperazinyl)methyl)-3,4-dihydro-2H,15′H-spiro[naphthalene-1,22′-[20]oxa[13]thia[1,14]diazatetracyclo [14.7.2.0~3,6~.0~19,24~]pentacosa[8,16,18,24]tetraen]-15′-one 13′,13′-dioxide], for which the IC50 was found to be 0.092 nM in assay [1] (setting [5]) and 18 nM in assay [2] (setting [6]).
`C[C@@H]1[C@@H](C)CCC[C@](C#N)(NC(=O)c2ccccc2)[C@@H]2CC[C@H]2CN2C[C@@]3(CCCc4cc(Cl)ccc43)COc3ccc(cc32)C(=O)NS1(=O)=O` [Example 100255, N-((1S,3′R,6′R,7′S,11′S,12′R)-6-chloro-7′-cyano-11′,12′-dimethyl-13′,13′-dioxido-15′-oxo-3,4-dihydro-2H-spiro[naphthalene-1,22′-[20]oxa[13]thia[1,14]diazatetracyclo [14.7.2.0~3,6~.0~19,24~]pentacosa[16,18,24]trien]-7′-yl)benzamide]: the IC50 in assay [1] (setting [3]) turned out to be 14.4 nM; in assay [2] (setting [7]), 5020 nM.
For `C[C@@H]1[C@@H](C)C/C=C/[C@](C)(OCCN2CC(F)(F)C2)[C@@H]2CC[C@H]2CN2C[C@@]3(CCCc4cc(Cl)ccc43)COc3ccc(cc32)C(=O)NS1(=O)=O` [Example 100484, (1S,3′R,6′R,7′S,8′E,11′S,12′R)-6-chloro-7′-(2-(3,3-difluoro-1-azetidinyl)ethoxy)-7′,11′,12′-trimethyl-3,4-dihydro-2H,15′H-spiro[naphthalene-1,22′-[20]oxa[13]thia[1,14]diazatetracyclo [14.7.2.0~3,6~.0~19,24~]pentacosa[8,16,18,24]tetraen]-15′-one 13′,13′-dioxide] the same measures were 3.85 nM and 3370 nM.

These data come from US10821115B2, “Compounds that inhibit Mcl-1 protein” (priority 2017, dated 2020).
